Our source for the AC50 values is ChEMBL document CHEMBL5291721, “A preclinical secondary pharmacology resource illuminates target-adverse drug reaction associations of marketed drugs” (Nat Commun, 2023).

In experiment [1] the target is T1, Progesterone receptor (Homo sapiens, UniProt P06401).
T1 sequence (P06401 whole entry): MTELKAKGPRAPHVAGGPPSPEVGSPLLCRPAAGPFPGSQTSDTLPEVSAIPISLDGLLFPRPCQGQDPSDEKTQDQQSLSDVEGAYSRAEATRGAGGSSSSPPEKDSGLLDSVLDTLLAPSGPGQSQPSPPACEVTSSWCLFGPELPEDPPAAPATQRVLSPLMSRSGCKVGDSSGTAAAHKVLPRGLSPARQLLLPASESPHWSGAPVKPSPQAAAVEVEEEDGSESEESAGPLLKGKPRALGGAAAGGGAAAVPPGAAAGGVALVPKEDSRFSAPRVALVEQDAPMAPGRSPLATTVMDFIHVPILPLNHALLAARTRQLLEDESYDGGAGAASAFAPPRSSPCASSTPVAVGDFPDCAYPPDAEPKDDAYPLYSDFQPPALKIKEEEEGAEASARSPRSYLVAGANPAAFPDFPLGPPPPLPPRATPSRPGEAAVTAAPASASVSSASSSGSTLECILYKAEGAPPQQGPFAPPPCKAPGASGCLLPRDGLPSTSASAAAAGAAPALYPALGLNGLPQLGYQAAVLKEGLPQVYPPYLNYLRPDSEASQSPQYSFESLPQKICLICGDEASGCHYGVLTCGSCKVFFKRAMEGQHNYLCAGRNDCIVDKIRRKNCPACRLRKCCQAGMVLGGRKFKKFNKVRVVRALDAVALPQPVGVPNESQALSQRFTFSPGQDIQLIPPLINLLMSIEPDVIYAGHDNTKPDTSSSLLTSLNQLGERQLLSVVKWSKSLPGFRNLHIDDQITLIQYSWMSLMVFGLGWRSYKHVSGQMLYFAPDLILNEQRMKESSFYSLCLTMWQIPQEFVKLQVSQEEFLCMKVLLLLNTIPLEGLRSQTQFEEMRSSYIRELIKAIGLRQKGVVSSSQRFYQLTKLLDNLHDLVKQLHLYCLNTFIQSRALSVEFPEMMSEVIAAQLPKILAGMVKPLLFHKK
It is filed as functional.

The target in experiment [2] is Kappa-type opioid receptor (Homo sapiens, UniProt P41145).
Another experiment deals with T2, Glucocorticoid receptor (Homo sapiens, UniProt P04150).
T2 sequence (P04150 whole entry): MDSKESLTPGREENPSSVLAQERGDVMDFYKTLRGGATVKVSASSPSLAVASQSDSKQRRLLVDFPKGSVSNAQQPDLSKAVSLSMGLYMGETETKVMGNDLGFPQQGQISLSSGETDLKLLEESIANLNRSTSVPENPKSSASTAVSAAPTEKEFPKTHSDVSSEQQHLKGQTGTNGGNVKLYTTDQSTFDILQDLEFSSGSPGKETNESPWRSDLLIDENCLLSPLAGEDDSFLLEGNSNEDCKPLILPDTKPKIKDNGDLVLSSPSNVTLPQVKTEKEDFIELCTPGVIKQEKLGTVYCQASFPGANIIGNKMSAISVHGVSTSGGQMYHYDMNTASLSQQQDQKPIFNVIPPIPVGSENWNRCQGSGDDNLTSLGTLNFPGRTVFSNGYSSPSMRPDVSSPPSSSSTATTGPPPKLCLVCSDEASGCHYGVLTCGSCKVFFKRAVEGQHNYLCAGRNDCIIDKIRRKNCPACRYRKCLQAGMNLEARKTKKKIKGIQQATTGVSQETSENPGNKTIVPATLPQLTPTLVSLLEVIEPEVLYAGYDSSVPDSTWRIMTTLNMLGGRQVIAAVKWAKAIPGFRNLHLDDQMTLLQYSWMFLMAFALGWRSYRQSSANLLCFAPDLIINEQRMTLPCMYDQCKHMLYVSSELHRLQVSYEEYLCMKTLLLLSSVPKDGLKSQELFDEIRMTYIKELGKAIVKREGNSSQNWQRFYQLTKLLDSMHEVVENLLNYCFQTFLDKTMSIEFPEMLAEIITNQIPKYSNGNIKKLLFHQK

Experiment [3] has as its target T3, Muscarinic acetylcholine receptor M2 (Homo sapiens, UniProt P08172).
T3 sequence (P08172 whole entry): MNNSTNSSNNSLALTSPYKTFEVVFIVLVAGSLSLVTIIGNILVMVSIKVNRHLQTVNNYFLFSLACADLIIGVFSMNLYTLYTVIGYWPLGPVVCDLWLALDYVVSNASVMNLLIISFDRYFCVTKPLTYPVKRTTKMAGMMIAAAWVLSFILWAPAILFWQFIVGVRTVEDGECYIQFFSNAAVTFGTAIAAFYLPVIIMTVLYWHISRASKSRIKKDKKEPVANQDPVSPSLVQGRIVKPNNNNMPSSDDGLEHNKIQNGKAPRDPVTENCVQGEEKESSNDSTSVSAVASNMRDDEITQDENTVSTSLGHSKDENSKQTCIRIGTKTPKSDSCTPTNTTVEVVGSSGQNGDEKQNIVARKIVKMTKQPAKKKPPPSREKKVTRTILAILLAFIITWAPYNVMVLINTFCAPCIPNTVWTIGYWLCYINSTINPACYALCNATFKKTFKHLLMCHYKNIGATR
It is filed as functional, cell-based.

In the next experiment the target is Vasopressin V2 receptor (Homo sapiens, UniProt P30518).
Experiment [4] deals with 5-hydroxytryptamine receptor 2A (Homo sapiens, UniProt P28223). It is filed as functional, cell-based.
In a further experiment the target is Melanocortin receptor 4 (Homo sapiens, UniProt P32245).
A further experiment deals with Prothrombin (Homo sapiens, UniProt P00734). It is filed as functional.
Experiment [5] deals with T1, Progesterone receptor.
The target of experiment [6] is T4, 5-hydroxytryptamine receptor 1A (Homo sapiens, UniProt P08908).
T4 sequence (P08908 whole entry): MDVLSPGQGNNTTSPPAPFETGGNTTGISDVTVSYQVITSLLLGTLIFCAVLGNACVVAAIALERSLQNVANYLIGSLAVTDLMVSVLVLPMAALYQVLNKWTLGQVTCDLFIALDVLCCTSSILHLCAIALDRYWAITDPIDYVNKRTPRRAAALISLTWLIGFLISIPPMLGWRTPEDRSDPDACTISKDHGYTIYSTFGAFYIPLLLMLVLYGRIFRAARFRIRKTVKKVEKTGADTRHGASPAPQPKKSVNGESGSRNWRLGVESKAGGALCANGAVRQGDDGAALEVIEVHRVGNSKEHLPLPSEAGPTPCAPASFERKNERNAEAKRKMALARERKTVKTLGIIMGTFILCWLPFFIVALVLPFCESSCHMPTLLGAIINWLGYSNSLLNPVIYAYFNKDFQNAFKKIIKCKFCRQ

In experiment [7] the target is Sodium-dependent dopamine transporter (Homo sapiens, UniProt Q01959).
Note: assay procedure not described here.

5-hydroxytryptamine receptor 2A, sequence (P28223 whole entry): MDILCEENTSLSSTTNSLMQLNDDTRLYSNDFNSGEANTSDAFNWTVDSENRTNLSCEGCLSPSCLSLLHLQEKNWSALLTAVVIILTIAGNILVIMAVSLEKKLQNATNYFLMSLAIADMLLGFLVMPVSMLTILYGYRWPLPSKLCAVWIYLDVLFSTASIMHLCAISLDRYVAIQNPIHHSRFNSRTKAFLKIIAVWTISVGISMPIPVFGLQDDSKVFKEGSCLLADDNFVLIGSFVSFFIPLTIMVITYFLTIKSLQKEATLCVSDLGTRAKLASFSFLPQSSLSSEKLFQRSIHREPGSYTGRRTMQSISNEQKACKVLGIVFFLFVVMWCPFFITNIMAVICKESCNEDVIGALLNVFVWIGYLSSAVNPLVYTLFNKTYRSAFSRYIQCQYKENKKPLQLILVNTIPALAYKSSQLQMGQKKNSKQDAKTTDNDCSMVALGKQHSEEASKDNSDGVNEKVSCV
Sodium-dependent dopamine transporter, sequence (Q01959 whole entry): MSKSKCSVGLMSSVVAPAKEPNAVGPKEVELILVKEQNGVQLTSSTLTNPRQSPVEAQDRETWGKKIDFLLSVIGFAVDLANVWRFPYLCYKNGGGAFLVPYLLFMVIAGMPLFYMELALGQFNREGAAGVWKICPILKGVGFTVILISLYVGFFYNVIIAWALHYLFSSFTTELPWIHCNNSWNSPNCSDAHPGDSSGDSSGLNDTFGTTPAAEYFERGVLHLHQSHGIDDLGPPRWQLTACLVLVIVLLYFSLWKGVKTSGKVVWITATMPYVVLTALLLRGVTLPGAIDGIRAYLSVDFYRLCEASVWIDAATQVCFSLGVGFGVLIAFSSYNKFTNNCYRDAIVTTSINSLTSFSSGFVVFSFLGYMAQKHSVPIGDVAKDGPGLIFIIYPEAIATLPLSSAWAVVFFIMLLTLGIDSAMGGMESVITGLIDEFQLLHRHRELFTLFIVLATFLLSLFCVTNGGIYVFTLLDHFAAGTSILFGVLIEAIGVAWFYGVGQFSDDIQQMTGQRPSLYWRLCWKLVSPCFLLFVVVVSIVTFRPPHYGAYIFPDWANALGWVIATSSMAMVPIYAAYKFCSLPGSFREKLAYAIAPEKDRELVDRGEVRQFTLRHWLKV
Kappa-type opioid receptor, sequence (P41145 whole entry): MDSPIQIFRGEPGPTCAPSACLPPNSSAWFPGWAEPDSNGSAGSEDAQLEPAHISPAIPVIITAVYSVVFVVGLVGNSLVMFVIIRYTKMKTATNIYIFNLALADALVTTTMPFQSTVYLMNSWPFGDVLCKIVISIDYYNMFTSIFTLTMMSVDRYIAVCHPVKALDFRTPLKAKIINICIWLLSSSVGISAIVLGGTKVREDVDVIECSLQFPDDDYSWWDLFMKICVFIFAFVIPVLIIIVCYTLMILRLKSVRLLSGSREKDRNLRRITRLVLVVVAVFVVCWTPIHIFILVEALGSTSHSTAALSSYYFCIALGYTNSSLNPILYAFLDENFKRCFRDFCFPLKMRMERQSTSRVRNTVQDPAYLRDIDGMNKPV
Melanocortin receptor 4, sequence (P32245 whole entry): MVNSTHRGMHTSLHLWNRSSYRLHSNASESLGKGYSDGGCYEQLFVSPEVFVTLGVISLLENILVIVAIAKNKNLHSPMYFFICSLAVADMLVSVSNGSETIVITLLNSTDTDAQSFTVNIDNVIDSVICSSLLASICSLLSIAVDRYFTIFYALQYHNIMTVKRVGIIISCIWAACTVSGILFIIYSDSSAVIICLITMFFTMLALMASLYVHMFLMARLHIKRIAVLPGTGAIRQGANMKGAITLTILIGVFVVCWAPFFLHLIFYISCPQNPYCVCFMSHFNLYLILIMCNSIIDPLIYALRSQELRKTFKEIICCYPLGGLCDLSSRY
Vasopressin V2 receptor, sequence (P30518 whole entry): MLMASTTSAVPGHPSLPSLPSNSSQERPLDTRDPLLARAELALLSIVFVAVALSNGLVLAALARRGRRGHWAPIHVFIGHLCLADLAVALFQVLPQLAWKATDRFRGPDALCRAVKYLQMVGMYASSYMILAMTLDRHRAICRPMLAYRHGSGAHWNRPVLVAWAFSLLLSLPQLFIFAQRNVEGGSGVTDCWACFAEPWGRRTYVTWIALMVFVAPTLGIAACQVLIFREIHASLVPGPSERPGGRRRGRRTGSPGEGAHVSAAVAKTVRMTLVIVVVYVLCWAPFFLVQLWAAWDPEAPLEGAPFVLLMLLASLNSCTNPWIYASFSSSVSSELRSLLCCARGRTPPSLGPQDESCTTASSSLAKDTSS

For orientation: AC50 means the midpoint of the concentration-response curve, whichever way the signal moves. Read a low AC50 as activity at low concentration. Consider `CN(C)CCOC(c1ccc(Cl)cc1)c1ccccn1` (stereo not given) [CARBINOXAMINE], for which the AC50 (on Progesterone receptor [1]; in experiment [2]; on Glucocorticoid receptor; in experiment [3]; at Vasopressin V2 receptor; in [4]) was > 30 µM in each case.
On to `NCCCCCC(=O)O` [AMINOCAPROIC ACID], for which the AC50 (at Progesterone receptor [1]; on Melanocortin receptor 4; in [2]; at Glucocorticoid receptor; in experiment [3]; on Vasopressin V2 receptor) was > 10 µM each time.
Turning to `Cc1c(C)c2c(c(C)c1O)CCC(C)(COc1ccc(CC3SC(=O)NC3=O)cc1)O2` (stereo not given) [TROGLITAZONE], the AC50 was > 30 µM on Progesterone receptor [1]; > 30 µM on Melanocortin receptor 4; > 30 µM on Prothrombin; 18 µM in [2]; 3.55 µM at Progesterone receptor [5]; > 30 µM in [3]. Moreover, the AC50 at Vasopressin V2 receptor is > 30 µM; in experiment [6] it was 25.7 µM; in experiment [7] it was 8.75 µM.
`CN(C)CCC=C1c2ccccc2CCc2ccccc21` [AMITRIPTYLINE]: the AC50 at Progesterone receptor [1] was > 30 µM; on Melanocortin receptor 4, 17.7 µM; on Prothrombin it was > 30 µM; on Glucocorticoid receptor, > 30 µM; at Progesterone receptor [5], > 30 µM; at Vasopressin V2 receptor, > 30 µM. Besides, the AC50 in [6] came out at 0.337 µM; in [7] it was 7.42 µM.
On to `CC(=O)Oc1ccccc1C(=O)O` [ASPIRIN], for which the AC50 at Melanocortin receptor 4 was > 30 µM; at Prothrombin, > 30 µM; in [2], > 10 µM; on Glucocorticoid receptor, > 30 µM; at Progesterone receptor [5], > 30 µM; in [3], > 30 µM. In addition, the AC50 (at Vasopressin V2 receptor; in [6]; in [7]) was > 30 µM in each case.
Consider `CN(C)CCCC1(c2ccc(F)cc2)OCc2cc(C#N)ccc21` (stereo not given) [CITALOPRAM], for which the AC50 is > 30 µM on Melanocortin receptor 4; > 30 µM on Prothrombin; > 10 µM in [2]; > 30 µM on Glucocorticoid receptor; > 30 µM on Progesterone receptor [5]; > 30 µM on Vasopressin V2 receptor.
As to `N[C@@H](Cc1cc(I)c(Oc2cc(I)c(O)c(I)c2)c(I)c1)C(=O)O` [LEVOTHYROXINE], the AC50 (on Progesterone receptor [1]; in experiment [2]; at Glucocorticoid receptor; in [3]; at Vasopressin V2 receptor; in experiment [4]) was > 30 µM throughout.
For `CCOC(=O)[C@H](CCc1ccccc1)N[C@@H](C)C(=O)N1Cc2ccccc2C[C@H]1C(=O)O`, the AC50 on Melanocortin receptor 4 was > 30 µM; on Prothrombin it was > 30 µM; in experiment [2], > 10 µM; at Glucocorticoid receptor, > 30 µM; at Progesterone receptor [5], > 30 µM; in experiment [3], > 10 µM. Besides, the AC50 (at Vasopressin V2 receptor; in experiment [6]; in experiment [7]) was > 30 µM in each case.
For the molecule `CC(C)NCC(O)COc1ccc(CC(N)=O)cc1` (stereo not given) [ATENOLOL], the AC50 (at Progesterone receptor [1]; on Melanocortin receptor 4; in experiment [2]; on Vasopressin V2 receptor) was > 30 µM in each case.
On to `CC(C)/N=c1\cc2n(-c3ccc(Cl)cc3)c3ccccc3nc-2cc1Nc1ccc(Cl)cc1` [CLOFAZIMINE], for which the AC50 on Progesterone receptor [1] is > 30 µM; in experiment [2] it was 14 µM; at Glucocorticoid receptor it was 0.034 µM; in experiment [3], > 30 µM; at Vasopressin V2 receptor, > 30 µM; in experiment [4] it was > 30 µM.
Take `O=C(O)COC(=O)Cc1ccccc1Nc1c(Cl)cccc1Cl` [ACECLOFENAC]: the AC50 at Melanocortin receptor 4 was > 30 µM; in [2] it was > 10 µM; in experiment [3] it was > 10 µM; on Vasopressin V2 receptor, > 30 µM.
In the case of `NCC1(CC(=O)O)CCCCC1` [GABAPENTIN], the AC50 on Progesterone receptor [1] is > 30 µM; on Melanocortin receptor 4 it was > 30 µM; at Prothrombin, > 30 µM; in experiment [2] it was > 10 µM; on Glucocorticoid receptor, > 30 µM; at Progesterone receptor [5], > 30 µM. Also, the AC50 (in experiment [3]; at Vasopressin V2 receptor; in experiment [6]; in experiment [7]) was > 30 µM throughout.
For `CCC1(c2ccccc2)C(=O)NCNC1=O` [PRIMIDONE], the AC50 (on Progesterone receptor [1]; at Melanocortin receptor 4; in experiment [2]; on Glucocorticoid receptor; in experiment [3]; at Vasopressin V2 receptor) was > 10 µM each time.
On to `CCN(CCO)CCCC(C)Nc1ccnc2cc(Cl)ccc12` (stereo not given) [HYDROXYCHLOROQUINE], for which the AC50 (on Progesterone receptor [1]; on Melanocortin receptor 4; in experiment [2]; at Glucocorticoid receptor; in experiment [3]; at Vasopressin V2 receptor) was > 10 µM throughout.
As to `C[C@H](CS)C(=O)N1CCC[C@H]1C(=O)O` [CAPTOPRIL], the AC50 was > 30 µM at Melanocortin receptor 4; > 10 µM in experiment [2]; > 30 µM on Glucocorticoid receptor; > 10 µM in experiment [3]; > 30 µM at Vasopressin V2 receptor.
Regarding `CCOC(=O)Nc1ccc(NCc2ccc(F)cc2)nc1N` [FLUPIRTINE], the AC50 on Progesterone receptor [1] is > 30 µM; in experiment [2], 18 µM; at Glucocorticoid receptor it was > 30 µM; in experiment [3], > 30 µM; on Vasopressin V2 receptor, > 30 µM; in experiment [4] it was > 10 µM.
In the case of `O=C(c1ccccc1)c1ccc2n1CCC2C(=O)O` (stereo not given) [KETOROLAC], the AC50 on Progesterone receptor [1] was > 10 µM; at Melanocortin receptor 4 it was > 10 µM; in experiment [2], > 30 µM; in experiment [3], > 30 µM; on Vasopressin V2 receptor, > 10 µM.
For the molecule `Nc1nnc(-c2cccc(Cl)c2Cl)c(N)n1` [LAMOTRIGINE], the AC50 is > 30 µM on Melanocortin receptor 4, > 10 µM in [2], > 10 µM in [3] and > 30 µM on Vasopressin V2 receptor.
